# Results: US20260327191A1, “GSK3a INHIBITORS AND METHODS OF USE THEREOF” (Blueprint Medicines Corporation, priority 2023, published 2026)
# Experiments:
# human GSK3α = biological target: T1, human GSK3α (Homo sapiens, UniProt P49840); test: In vitro enzymatic activity assay, GSK3α; assay type: biochemical; settings: 1.0 mM ATP, 1.0 μM peptide substrate, 120 min, 25° C, read-out: Enzyme GSK3α (IC50)
# T1 construct: Full length human GSK3α or GSK3B expressed as N-terminal GST fusion proteins; GST (N); purchased Carna Biosciences (Japan); host or cells: baculovirus host
# T1 sequence (P49840 whole entry, the tested form may be a part): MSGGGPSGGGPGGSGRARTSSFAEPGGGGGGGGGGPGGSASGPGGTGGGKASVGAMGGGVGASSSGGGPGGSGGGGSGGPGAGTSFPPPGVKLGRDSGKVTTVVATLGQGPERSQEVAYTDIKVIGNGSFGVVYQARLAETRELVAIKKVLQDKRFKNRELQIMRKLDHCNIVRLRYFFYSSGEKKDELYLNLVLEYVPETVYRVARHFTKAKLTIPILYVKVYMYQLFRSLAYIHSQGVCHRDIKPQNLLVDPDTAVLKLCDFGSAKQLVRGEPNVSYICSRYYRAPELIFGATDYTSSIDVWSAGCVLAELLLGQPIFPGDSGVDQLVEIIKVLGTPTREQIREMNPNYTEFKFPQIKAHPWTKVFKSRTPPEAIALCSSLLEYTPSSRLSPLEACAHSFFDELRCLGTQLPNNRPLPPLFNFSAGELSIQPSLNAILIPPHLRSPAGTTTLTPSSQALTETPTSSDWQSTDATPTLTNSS
# GSK3A = biological target: T2, GSK3A (Homo sapiens, UniProt P49840); test: NanoBRET cellular target engagement assay, Nanoluc-GSK3A in HEK293 cells; assay type: cell-based; settings: NanoBRET GSK3α IC50, HEK293 cells, tracer K-8, 2 hours, 37° C
# T2 construct: expressed in transfected cells
# T2 sequence (P49840 whole entry): as the sequence (P49840 whole entry, the tested form may be a part) above
# GSK3B [1] = biological target: T3, GSK3B (Homo sapiens, UniProt P49841); test: NanoBRET cellular target engagement assay, Nanoluc-GSK3B in HEK293 cells; assay type: cell-based; design: expressed in transfected cells; settings: NanoBRET GSK3β IC50, HEK293 cells, tracer K-8, 2 hours, 37° C
# T3 sequence (P49841 whole entry, the tested form may be a part): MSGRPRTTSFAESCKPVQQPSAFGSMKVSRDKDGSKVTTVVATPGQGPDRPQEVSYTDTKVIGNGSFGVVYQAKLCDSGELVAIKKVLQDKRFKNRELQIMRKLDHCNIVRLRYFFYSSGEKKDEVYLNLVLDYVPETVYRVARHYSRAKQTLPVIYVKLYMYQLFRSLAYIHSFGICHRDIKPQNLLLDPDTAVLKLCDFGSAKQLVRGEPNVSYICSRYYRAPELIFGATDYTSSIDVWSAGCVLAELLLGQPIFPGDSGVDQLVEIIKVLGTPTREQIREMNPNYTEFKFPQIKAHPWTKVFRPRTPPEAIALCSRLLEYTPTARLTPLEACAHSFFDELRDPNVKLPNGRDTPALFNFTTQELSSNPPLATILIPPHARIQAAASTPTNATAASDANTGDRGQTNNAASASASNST
# GSK3B [2] = biological target: T3, GSK3B; test: In vitro enzymatic activity assay, GSK3β; assay type: biochemical; design: Full length human GSK3α or GSK3B expressed as N-terminal GST fusion proteins; GST (N); purchased Carna Biosciences (Japan); host or cells: baculovirus host; settings: 1.0 mM ATP, 1.0 μM peptide substrate, 120 min, 25° C, read-out: Enzyme GSK3β (IC50)
Compound,IC50 (human GSK3α) [nM],IC50 (GSK3A) [nM],IC50 (GSK3B [1]) [nM],IC50 (GSK3B [2]) [nM]
"COCc1cc(Cl)c(-n2cnc(N)c(C(=O)Nc3cncc([C@@H](C)N)c3)c2=O)c(Cl)c1 (single isomer, unassigned) [Example 67, (S)-4-amino-N-(5-(1-aminoethyl)pyridin-3-yl)-1-(2,6-dichloro-4-(methoxymethyl)phenyl)-6-oxo-1,6-dihydropyrimidine-5-carboxamide or (R)-4-amino-N-(5-(1-aminoethyl)pyridin-3-yl)-1-(2,6-dichloro-4-(methoxymethyl)phenyl)-6-oxo-1,6-dihydropyrimidine-5-carboxamide]",2.1,1.4,73.4,105
"Cc1cc(C(F)(F)F)cc(C)c1-n1cnc(N)c(C(=O)Nc2cncc(C3CCC(C)N3)c2)c1=O (single isomer, unassigned) [Example 87]",17.9,7.6,543,1130
"Cc1cc(C)c(-n2cnc(N)c(C(=O)Nc3cncc(C(C)N)c3)c2=O)c(C)c1 (single isomer, unassigned) [Example 147, (R)-4-amino-N-(5-(1-aminoethyl)pyridin-3-yl)-1-mesityl-6-oxo-1,6-dihydropyrimidine-5-carboxamide or (S)-4-amino-N-(5-(1-aminoethyl)pyridin-3-yl)-1-mesityl-6-oxo-1,6-dihydropyrimidine-5-carboxamide]",8.8,3.8,354,392
"COc1cc(Cl)c(-n2cnc(N)c(C(=O)Nc3cncc(C4CCCC(C)N4)c3)c2=O)c(Cl)c1 (single isomer, unassigned) [Example 83]",7,4.1,336,490
"COC[C@@H](N)c1cccc(NC(=O)c2c(N)ncn(-c3c(C)cc(OC)cc3Cl)c2=O)c1 (atropisomer, axis not shown) [Example 1, (S)-4-amino-N-(3-(1-amino-2-methoxyethyl)phenyl)-1-((S)-2-chloro-4-methoxy-6-methylphenyl)-6-oxo-1,6-dihydropyrimidine-5-carboxamide]",3.6,3.6,243,168
"CCc1cc(C)c(-n2cnc(N)c(C(=O)Nc3cncc(C4CCCCCN4)c3)c2=O)c(C)c1 (single isomer, unassigned) [Example 148, (R)-4-amino-N-(5-(azepan-2-yl)pyridin-3-yl)-1-(4-ethyl-2,6-dimethylphenyl)-6-oxo-1,6-dihydropyrimidine-5-carboxamide or (S)-4-amino-N-(5-(azepan-2-yl)pyridin-3-yl)-1-(4-ethyl-2,6-dimethylphenyl)-6-oxo-1,6-dihydropyrimidine-5-carboxamide]",7.2,4.3,349,317
"CCOCc1cc(C)c(-n2cnc(N)c(C(=O)Nc3cncc([C@H]4CCCCN4)c3)c2=O)c(C)c1 [Example 131, (R)-4-amino-1-(4-(ethoxymethyl)-2,6-dimethylphenyl)-6-oxo-N-(5-(piperidin-2-yl)pyridin-3-yl)-1,6-dihydropyrimidine-5-carboxamide]",4.9,2.3,159,202
"CCNCc1cncc(NC(=O)c2c(N)ncn(-c3c(Cl)cc(C(=O)OCC)cc3Cl)c2=O)c1 [Example 199, ethyl 4-(4-amino-5-((5-((ethylamino)methyl)pyridin-3-yl)carbamoyl)-6-oxopyrimidin-1 (6H)-yl)-3,5-dichlorobenzoate]",3.3,2.4,118,203
"Nc1ncn(-c2c(Cl)cccc2Cl)c(=O)c1C(=O)Nc1cccc([C@H]2CC[C@H](CO)N2)c1 (single isomer, unassigned) [Example 191, 4-amino-1-(2,6-dichlorophenyl)-N-(3-((2R,5R)-5-(hydroxymethyl)pyrrolidin-2-yl)phenyl)-6-oxo-1,6-dihydropyrimidine-5-carboxamide or 4-amino-1-(2,6-dichlorophenyl)-N-(3-((2S,5S)-5-(hydroxymethyl)pyrrolidin-2-yl)phenyl)-6-oxo-1,6-dihydropyrimidine-5-carboxamide]",5.7,4.7,304,230
"CCOc1c(CN)cccc1NC(=O)c1c(N)ncn(-c2c(Cl)cccc2Cl)c1=O [Example 220, 4-amino-N-(3-(aminomethyl)-2-ethoxyphenyl)-1-(2,6-dichlorophenyl)-6-oxo-1,6-dihydropyrimidine-5-carboxamide]",11.7,8.1,259,308
"Nc1ncn(-c2c(Cl)cc(C(F)F)cc2Cl)c(=O)c1C(=O)Nc1cccc([C@@H]2CCCN2)c1 [Example 54, (S)-4-amino-1-(2,6-dichloro-4-(difluoromethyl)phenyl)-6-oxo-N-(3-(pyrrolidin-2-yl)phenyl)-1,6-dihydropyrimidine-5-carboxamide]",5.4,5.4,340,345
"COCc1cc(Cl)c(-n2cnc(N)c(C(=O)Nc3cncc([C@@H]4CCCCN4)c3)c2=O)c(Cl)c1 [Example 61, (S)-4-amino-1-(2,6-dichloro-4-(methoxymethyl)phenyl)-6-oxo-N-(5-(piperidin-2-yl)pyridin-3-yl)-1,6-dihydropyrimidine-5-carboxamide]",6.4,3.7,284,466
"Cc1cc(C(F)CF)cc(C)c1-n1cnc(N)c(C(=O)Nc2cncc(C(C)N)c2)c1=O (single isomer, unassigned) [Example 114]",12.1,4.4,252,507
"COCc1cc(C)c(-n2cnc(N)c(C(=O)Nc3cncc(C4(N)CCC4)c3)c2=O)c(C)c1 [Example 157, 4-amino-N-(5-(1-aminocyclobutyl)pyridin-3-yl)-1-(4-(methoxymethyl)-2,6-dimethylphenyl)-6-oxo-1,6-dihydropyrimidine-5-carboxamide]",32.5,11.3,1160,1320
"CCNCc1cncc(NC(=O)c2c(N)ncn(-c3c(Cl)cc(-c4cnco4)cc3Cl)c2=O)c1 [Example 200, 4-amino-1-(2,6-dichloro-4-(oxazol-5-yl)phenyl)-N-(5-((ethylamino)methyl)pyridin-3-yl)-6-oxo-1,6-dihydropyrimidine-5-carboxamide]",14.4,7.6,451,813
"CCOc1cc(Cl)c(-n2cnc(N)c(C(=O)Nc3cncc(C(C)N)c3)c2=O)c(Cl)c1 (single isomer, unassigned) [Example 142, (R)-4-amino-N-(5-(1-aminoethyl)pyridin-3-yl)-1-(2,6-dichloro-4-ethoxyphenyl)-6-oxo-1,6-dihydropyrimidine-5-carboxamide or (S)-4-amino-N-(5-(1-aminoethyl)pyridin-3-yl)-1-(2,6-dichloro-4-ethoxyphenyl)-6-oxo-1,6-dihydropyrimidine-5-carboxamide]",9.8,4.7,350,421
"CNC(C)c1cncc(NC(=O)c2c(N)ncn(-c3c(Cl)cc(Cl)cc3Cl)c2=O)c1 (single isomer, unassigned) [Example 12, (R)-4-amino-N-(5-(1-(methylamino)ethyl)pyridin-3-yl)-6-oxo-1-(2,4,6-trichlorophenyl)-1,6-dihydropyrimidine-5-carboxamide or (S)-4-amino-N-(5-(1-(methylamino)ethyl)pyridin-3-yl)-6-oxo-1-(2,4,6-trichlorophenyl)-1,6-dihydropyrimidine-5-carboxamide]",3.8,2.4,141,199
"COc1cc(Cl)c(-n2cnc(N)c(C(=O)Nc3cncc(C4(N)CCOCC4)c3)c2=O)c(Cl)c1 [Example 182, 4-amino-N-(5-(4-aminotetrahydro-2H-pyran-4-yl)pyridin-3-yl)-1-(2,6-dichloro-4-methoxyphenyl)-6-oxo-1,6-dihydropyrimidine-5-carboxamide]",17.4,8.2,643,915
"CNCc1cncc(NC(=O)c2c(N)ncn(-c3c(Cl)cc(C(F)CF)cc3Cl)c2=O)c1 (single isomer, unassigned) [Example 117, (R)-4-amino-1-(2,6-dichloro-4-(1,2-difluoroethyl)phenyl)-N-(5-((methylamino)methyl)pyridin-3-yl)-6-oxo-1,6-dihydropyrimidine-5-carboxamide or (S)-4-amino-1-(2,6-dichloro-4-(1,2-difluoroethyl)phenyl)-N-(5-((methylamino)methyl)pyridin-3-yl)-6-oxo-1,6-dihydropyrimidine-5-carboxamide]",2.2,1.4,81.1,104
"COC[C@@H](N)c1cccc(NC(=O)c2c(N)ncn(-c3c(Cl)cccc3C(F)F)c2=O)c1 (atropisomer, axis not shown) [Example 7, (S)-4-amino-N-(3-(1-amino-2-methoxyethyl)phenyl)-1-((S)-2-chloro-6-(difluoromethyl)phenyl)-6-oxo-1,6-dihydropyrimidine-5-carboxamide]",7.5,7.1,480,337
